{"source": "PubChem BioAssay AID1259407", "about": "(Chemical Carcinogenesis Research Information System (CCRIS), 2018)", "tested_on": "CCRIS mutagenicity, Ames/micronucleus/aberration tests", "test": "CCRIS mutagenicity studies", "key": {"[1]": {"details": "Test System: AMES SALMONELLA TYPHIMURIUM, Strain/Indicator: TA98, Metabolic Activation: NONE, Method: STANDARD PLATE"}, "[2]": {"details": "Test System: AMES SALMONELLA TYPHIMURIUM, Strain/Indicator: TA98, Metabolic Activation: RAT, LIVER, S-9, AROCLOR 1254, Method: STANDARD PLATE"}, "[3]": {"details": "Test System: AMES SALMONELLA TYPHIMURIUM, Strain/Indicator: TA100, Metabolic Activation: NONE, Method: STANDARD PLATE"}, "[4]": {"details": "Test System: AMES SALMONELLA TYPHIMURIUM, Strain/Indicator: TA100, Metabolic Activation: RAT, LIVER, S-9, AROCLOR 1254, Method: STANDARD PLATE"}, "[5]": {"details": "Test System: AMES SALMONELLA TYPHIMURIUM, Strain/Indicator: TA102, Metabolic Activation: NONE, Method: STANDARD PLATE"}, "[6]": {"details": "Test System: AMES SALMONELLA TYPHIMURIUM, Strain/Indicator: TA98, Metabolic Activation: NONE, Method: PREINCUBATION"}}, "note": "Calls of active or inactive are those of the source. How the calls were made is not given here.", "data": [{"smiles": "N#CC1=C(C#N)SCCS1", "values": [{"measurement": "mutagenic call", "setting": "[1]", "result": "inactive; negative"}, {"measurement": "mutagenic call", "setting": "[2]", "result": "inactive; negative"}, {"measurement": "mutagenic call", "setting": "[3]", "result": "inactive; negative"}, {"measurement": "mutagenic call", "setting": "[4]", "result": "inactive; negative"}, {"measurement": "mutagenic call", "setting": "Test System: AMES SALMONELLA TYPHIMURIUM, Strain/Indicator: TA1535, Metabolic Activation: NONE, Method: STANDARD PLATE", "result": "inactive; negative"}, {"measurement": "mutagenic call", "setting": "Test System: AMES SALMONELLA TYPHIMURIUM, Strain/Indicator: TA1535, Metabolic Activation: RAT, LIVER, S-9, AROCLOR 1254, Method: STANDARD PLATE", "result": "inactive; negative"}, {"measurement": "mutagenic call", "setting": "Test System: AMES SALMONELLA TYPHIMURIUM, Strain/Indicator: TA1537, Metabolic Activation: NONE, Method: STANDARD PLATE", "result": "inactive; negative"}, {"measurement": "mutagenic call", "setting": "Test System: AMES SALMONELLA TYPHIMURIUM, Strain/Indicator: TA1537, Metabolic Activation: RAT, LIVER, S-9, AROCLOR 1254, Method: STANDARD PLATE", "result": "inactive; negative"}, {"measurement": "mutagenic call", "setting": "Test System: AMES SALMONELLA TYPHIMURIUM, Strain/Indicator: TA1538, Metabolic Activation: NONE, Method: STANDARD PLATE", "result": "inactive; negative"}, {"measurement": "mutagenic call", "setting": "Test System: AMES SALMONELLA TYPHIMURIUM, Strain/Indicator: TA1538, Metabolic Activation: RAT, LIVER, S-9, AROCLOR 1254, Method: STANDARD PLATE", "result": "inactive; negative"}]}, {"smiles": "COCc1ccc([N+]#N)cc1", "values": [{"measurement": "mutagenic call", "setting": "[5]", "result": "active; positive"}, {"measurement": "mutagenic call", "setting": "Test System: CHINESE HAMSTER V-79, Strain/Indicator: V-79/6-THIOGUANINE, Metabolic Activation: NONE", "result": "active; positive"}]}, {"smiles": "c1cc(OCC2CO2)ccc1Cc1ccc(OCC2CO2)cc1", "note": "(stereo not drawn)", "values": [{"measurement": "mutagenic call", "setting": "End Point: In vitro micronucleus, Test System: HepG2 cells, Metabolic Activation: None", "result": "inactive; negative"}]}, {"smiles": "CCC(C)CO", "note": "(stereo not drawn)", "values": [{"measurement": "mutagenic call", "setting": "Test System: CHINESE HAMSTER V-79, Strain/Indicator: V-79 (HPRT)/6-THIOGUANINE, Metabolic Activation: NONE, Method: STANDARD PLATE", "result": "inactive; negative"}, {"measurement": "mutagenic call", "setting": "Test System: CHINESE HAMSTER V-79, Strain/Indicator: V-79 (HPRT)/6-THIOGUANINE, Metabolic Activation: RAT LIVER S-9, Method: STANDARD PLATE", "result": "inactive; negative"}]}, {"smiles": "Clc1cccc(Cl)n1", "values": [{"measurement": "mutagenic call", "setting": "Test System: AMES SALMONELLA TYPHIMURIUM, Strain/Indicator: TA97, Metabolic Activation: NONE, Method: STANDARD PLATE", "result": "inactive; negative"}, {"measurement": "mutagenic call", "setting": "[1]", "result": "inactive; negative"}, {"measurement": "mutagenic call", "setting": "[2]", "result": "inactive; negative"}, {"measurement": "mutagenic call", "setting": "[3]", "result": "inactive; negative"}, {"measurement": "mutagenic call", "setting": "[4]", "result": "inactive; negative"}, {"measurement": "mutagenic call", "setting": "[5]", "result": "inactive; negative"}, {"measurement": "mutagenic call", "setting": "Test System: AMES SALMONELLA TYPHIMURIUM, Strain/Indicator: TA102, Metabolic Activation: RAT, LIVER, S-9, AROCLOR 1254, Method: STANDARD PLATE", "result": "inactive; negative"}]}, {"smiles": "NNc1nncc2ncccc12", "values": [{"measurement": "mutagenic call", "setting": "[6]", "result": "active; positive"}, {"measurement": "mutagenic call", "setting": "Test System: AMES SALMONELLA TYPHIMURIUM, Strain/Indicator: TA98, Metabolic Activation: RAT, LIVER, S-9, PCB, Method: PREINCUBATION", "result": "active; positive"}, {"measurement": "mutagenic call", "setting": "Test System: AMES SALMONELLA TYPHIMURIUM, Strain/Indicator: TA100, Metabolic Activation: NONE, Method: PREINCUBATION", "result": "active; positive"}, {"measurement": "mutagenic call", "setting": "Test System: AMES SALMONELLA TYPHIMURIUM, Strain/Indicator: TA100, Metabolic Activation: RAT, LIVER, S-9, PCB, Method: PREINCUBATION", "result": "active; positive"}]}, {"smiles": "O=[N+]([O-])c1ccc2c(c1)Cc1cccc(O)c1-2", "values": [{"measurement": "mutagenic call", "setting": "[6]", "result": "active; positive"}, {"measurement": "mutagenic call", "setting": "Test System: AMES SALMONELLA TYPHIMURIUM, Strain/Indicator: TA98, Metabolic Activation: S-9, Method: PREINCUBATION", "result": "active; positive"}]}]}
